These results are taken from patent US9006243B2, “HIV inhibiting 6-substituted pyrimidines” (Janssen R&D Ireland, priority 2006, dated 2015).

Broadly, the EC50 is the concentration that produces a half-maximal response. A word on the melting point: it is the temperature of the solid-liquid transition.

Each structure is given as a SMILES string. A value given as a limit tells only on which side of the number the result lay.

Data set [1] concerns HIV strain IIIB (wild type). As to the kind of experiment: microbe, parasite or virus in culture. The note with it: for EC50: Human immunodeficiency virus 1, IIIB, 72 h, read-out: IIIB pEC50 (−log EC50) (converted); for IIIB pEC50 (−log EC50): wild type HIV strain IIIB, MT4 LTR-EGFP cells, GFP fluorescence, three days after infection. On the procedure:
Compounds of the invention were tested for their potency against wild type virus and clinically isolated HIV strains harboring one or more mutations associated with resistance to reverse transcriptase inhibitors. Antiviral activity was evaluated using a cellular assay performed according to the following procedure.
The human T-cell line MT4 was engineered with Green Fluorescent Protein (GFP) and a HIV-specific promoter, HIV-1 long terminal repeat (LTR). This cell line, designated MT4 LTR-EGFP, can be used for the in vitro evaluation of anti-HIV activity of investigational compounds. In HIV-1 infected cells, the Tat protein is produced, which upregulates the LTR promotor and eventually leads to stimulation of the GFP reporter production, allowing to measure ongoing HIV-infection fluorometrically.
Analogously, MT4 cells were engineered with GFP and the constitutional cytomegalovirus (CMV) promotor. […] Cytotoxic investigational compounds reduce GFP levels of mock-infected MT4 CMV-EGFP cells.
The ratio of CC50 to EC50 is defined as the selectivity index (SI) and is an indication of the selectivity of the anti-HIV activity of the inhibitor. The ultimate monitoring of HIV-1 infection and cytotoxicity was done using a scanning microscope. Image analysis allows very sensitive detection of viral infection. Measurements were done before cell necrosis, which usually takes place about five days after infection, in particular measurements were performed three days after infection.
The columns IIIB, L100I, etc. in the table list the pEC50 (−log EC50) values against various strains IIIB, L100I, etc.; pSI lists the −log SI values.
Strain IIIB is wild type HIV strain.

Data set [2] deals with HIV strain L100I + K103N. As to the kind of experiment: microbe, parasite or virus in culture. Type of data set: cell-based, HIV-1. The note with it: for EC50: Human immunodeficiency virus 1, 72 h, read-out: L100I + K103N pEC50 (−log EC50) (converted); for L100I + K103N pEC50 (−log EC50): HIV strain L100I + K103N, MT4 LTR-EGFP cells, three days after infection. The source says: (§1) Image analysis allows very sensitive detection of viral infection.

Data set [3] deals with HIV strain K103N + Y181C. Kind of data set: microbe, parasite or virus in culture. The settings on record: for EC50: Human immunodeficiency virus 1, 72 h, read-out: K103N + Y181C pEC50 (−log EC50) (converted); for K103N + Y181C pEC50 (−log EC50): HIV strain K103N + Y181C, MT4 LTR-EGFP cells, three days after infection. Type of data set: cell-based, HIV-1.
Excerpt: as §1

Data set [4] relates to HIV strain Y181C. Kind of data set: microbe, parasite or virus in culture. Type of data set: cell-based, HIV-1. The note with it: for EC50: Human immunodeficiency virus 1, 72 h, read-out: Y181C pEC50 (−log EC50) (converted); for Y181C pEC50 (−log EC50): HIV strain Y181C, MT4 LTR-EGFP cells, three days after infection.
Excerpt: as §1

The test system of data set [5] is HIV strain MDR (L100I, K103N, Y181C, E138G, V179I, L2214F, V278V/I and A327A/V in HIV reverse transcriptase). As to the kind of experiment: microbe, parasite or virus in culture. Type of data set: cell-based, HIV-1. The settings on record: for EC50: Human immunodeficiency virus 1, 72 h, read-out: MDR pEC50 (−log EC50) (converted); for MDR pEC50 (−log EC50): MDR HIV strain (multiple RT mutations), MT4 LTR-EGFP cells, three days after infection.
Excerpt: as §1
“MDR” refers to a strain that contains mutations L100I, K103N, Y181C, E138G, V179I, L2214F, V278V/I and A327A/V in HIV reverse transcriptase.

Compound `Cc1cc(/C=C/C#N)cc(C)c1Nc1cc(-c2cccnc2)nc(Nc2ccc(C#N)cc2)n1` [Compound 1] gave a melting point of 180 °C. In addition, the EC50 in data set [1] was 3.47 nM. In addition, in data set [2], the EC50 was 115 nM. Further, the concentration giving a half-maximal response (EC50) in data set [3] is 19.5 nM. In addition, in data set [4], the EC50 was 11 nM. In data set [5], the EC50 is 1780 nM.
In turn, `COCCNC(=O)c1cc(Nc2c(C)cc(/C=C/C#N)cc2C)nc(Nc2ccc(C#N)cc2)n1` [Compound 4] returned a melting point of 130 °C. For the same compound, in data set [1], the EC50 is 3.09 nM. Moreover, the EC50 in data set [3] is 10.2 nM. For the same compound, the EC50 in data set [4] was 13.8 nM. Also, in data set [5], the EC50 was 2820 nM.
Take `Cc1cc(/C=C/C#N)cc(C)c1Nc1cc(C(=O)NCCF)nc(Nc2ccc(C#N)cc2)n1` [Compound 5]: the melting point is above 250 °C. In addition, the EC50 in data set [1] is 1.58 nM. Moreover, in data set [2], the EC50 was 25.1 nM. Also, the EC50 in data set [3] was 4.37 nM. Also, the EC50 in data set [4] was 6.31 nM. In addition, the EC50 in data set [5] was 1410 nM.
As to `Cc1cc(/C=C/C#N)cc(C)c1Nc1cc(C(=O)NCCC#N)nc(Nc2ccc(C#N)cc2)n1` [Compound 6], the melting point was 250 °C. For the same compound, in data set [1], the EC50 is 8.91 nM. Also, in data set [2], the EC50 was 40.7 nM. Moreover, in data set [4], the EC50 was 20 nM. For the same compound, in data set [5], the EC50 was 1860 nM.
In the case of `Cc1cc(/C=C/C#N)cc(C)c1Nc1cc(C(=O)NCc2ccncc2)nc(Nc2ccc(C#N)cc2)n1` [Compound 7], the melting point came to 202 °C. In addition, in data set [1], the EC50 is 4.17 nM. For the same compound, in data set [3], the EC50 is 17.8 nM. In data set [4], the EC50 was 16.6 nM. In addition, in data set [5], the EC50 was 2340 nM.
Consider `Cc1cc(/C=C/C#N)cc(C)c1Nc1cc(C(=O)NCc2ccco2)nc(Nc2ccc(C#N)cc2)n1` [Compound 8], for which the melting point was 256 °C. The EC50 in data set [1] was 5.5 nM. In addition, the EC50 in data set [2] was 85.1 nM. The concentration for a half-maximal effect (EC50) in data set [3] was 31.6 nM. For the same compound, the EC50 in data set [4] was 18.6 nM. In data set [5], the EC50 is 8130 nM.
The compound `Cc1cc(/C=C/C#N)cc(C)c1Nc1cc(C(O)c2nccs2)nc(Nc2ccc(C#N)cc2)n1` (centres unmarked) [Compound 11] returned a melting point of 147 °C. The EC50 in data set [1] was 1.82 nM. Also, the EC50 in data set [2] is 6.31 nM. Further, the EC50 in data set [3] is 19.1 nM. Further, in data set [4], the EC50 is 4.07 nM. Besides, the EC50 in data set [5] is 692 nM.
For the compound `Cc1cc(/C=C/C#N)cc(C)c1Nc1cc(CN2CCN(C)CC2)nc(Nc2ccc(C#N)cc2)n1` [Compound 13], in data set [1], the “IIIB pEC50 (−log EC50)” value was determined as 8.54. Besides, the “L100I + K103N pEC50 (−log EC50)” value in data set [2] was 7.20. Moreover, the “K103N + Y181C pEC50 (−log EC50)” value in data set [3] amounted to 7.68. Moreover, in data set [4], the “Y181C pEC50 (−log EC50)” value turned out to be 7.79. In data set [5], the “MDR pEC50 (−log EC50)” value was 5.59.
The like results for `Cc1cc(C=CC#N)cc(C)c1Nc1cc(CN(C)CC#N)nc(Nc2ccc(C#N)cc2)n1` [Compound 21] were, in that order, 8.47, 7.16, 7.71, 7.73 and 5.70.
Turning to `CCOP(=O)(OCC)OCc1cc(Nc2c(C)cc(/C=C/C#N)cc2C)nc(Nc2ccc(C#N)cc2)n1` [Compound 32], the “IIIB pEC50 (−log EC50)” value in data set [1] is 8.50. Further, in data set [2], the “L100I + K103N pEC50 (−log EC50)” value is on record as 7.20. Moreover, the “K103N + Y181C pEC50 (−log EC50)” value in data set [3] was 7.50. The “Y181C pEC50 (−log EC50)” value in data set [4] is reported as 7.60. Moreover, the “MDR pEC50 (−log EC50)” value in data set [5] turned out to be 6.40.
In the case of `Cc1cc(/C=C/C#N)cc(C)c1Nc1cc(COC(N)=O)nc(Nc2ccc(C#N)cc2)n1` [Compound 33], the “IIIB pEC50 (−log EC50)” value in data set [1] came out at 8.40. The “L100I + K103N pEC50 (−log EC50)” value in data set [2] was 7.10. Also, the “K103N + Y181C pEC50 (−log EC50)” value in data set [3] came to 8.00. Besides, in data set [4], the “Y181C pEC50 (−log EC50)” value is 7.70. The “MDR pEC50 (−log EC50)” value in data set [5] is reported as 6.20.
With `Cc1cc(/C=C/C#N)cc(C)c1Nc1cc(/C=N/O)nc(Nc2ccc(C#N)cc2)n1` [Compound 34], the melting point was 220 °C. The EC50 in data set [1] is 3.98 nM. Besides, in data set [2], the 50% effective concentration (EC50) was 12.6 nM. For the same compound, the 50% effective concentration (EC50) in data set [3] is 3.98 nM. Moreover, the EC50 in data set [4] is 10 nM. Besides, in data set [5], the EC50 was 501 nM.
